Source: US10934297B2, “5-heteroaryl substituted indazole-3-carboxamides and preparation and use thereof” (Samumed, LLC, priority 2018, dated 2021)

Experiments:
[1] = tested on: Wnt activity (Sp5-Luc reporter in SW480 cells); test: Screening assay for Wnt activity: Sp5-Luc reporter gene assay in SW480 colon carcinoma cells; assay type: cell-based, human; conditions: Homo sapiens, 36 to 48 hours
Text: The screening assay for Wnt activity is described as follows. Reporter cell lines can be generated by stably transducing cancer cell lines (e.g., colon cancer) or primary cells (e.g., IEC-6 intestinal cells) with a lentiviral construct that includes a Wnt-responsive promoter driving expression of the firefly luciferase gene.
SW480 colon carcinoma cells were transduced with a lentiviral vector expressing luciferase with a human Sp5 promoter consisting of a sequence of eight TCF/LEF binding sites. SW480 cells stably expressing the Sp5-Luc reporter gene and a hygromycin resistance gene were selected by treatment with 150 μg/mL of hygromycin for 7 days. These stably transduced SW480 cells were expanded in cell culture and used for all further screening activities. […] For Sp5-Luc reporter gene assays, the cells were plated at 4,000 cells/well in 384-well plates with a DMEM medium containing 1% fetal bovine serum, and 1% Penicillin-Streptomycin and incubated for 36 to 48 hours at 37° C. and 5% CO2. Following incubation, 15 μl of BriteLite Plus luminescence reagent (Perkin Elmer) was added to each well of the 384-well assay plates. The plates were placed on an orbital shaker for 2 min and then luminescence was quantified using the Envision (Perkin Elmer) plate reader. Readings were normalized to DMSO only treated cells, and normalized activities were utilized for EC50 calculations using the dose-response log (inhibitor) vs. response-variable slope (four parameters) nonlinear regression feature available in GraphPad Prism 5.0 (or Dotmatics).

[2] = molecular target: DYRK1A kinase (Homo sapiens (Human), UniProt Q13627); test: DYRK1A kinase assay (Ser/Thr 18 peptide Z-lyte FRET); assay type: biochemical; conditions: read-out: EC50 (method: IC50)
Protocol: Representative compounds were screened using the assay procedure for DYRK1A kinase activity as described below.
This is a non-radioactive assay using fluorescence resonance energy transfer (FRET) between coumarin and fluorescein to detect kinase activity which is represented as a ratio of coumarin emission/fluorescein emission.
The mixture was allowed to incubate with the representative compounds for one hour at room temperature. All reactions were performed in duplicate. Unphosphorylated (“0% Control”) and phosphorylated (“100% control”) forms of Ser/Thr 18 served as control reactions. Additionally, an 11-point dose-response curve of Staurosporine (1 uM top) was run to serve as a positive compound control.
After incubation, Development Reagent A was diluted in Development Buffer then added to the reaction and allowed to further incubate for one hour at room temperature.

[3] = molecular target: GSK3β kinase (Homo sapiens (Human), UniProt P49841); test: GSK3β kinase assay (Ser/Thr 09 peptide Z-lyte FRET); assay type: biochemical; conditions: read-out: EC50 (method: IC50)
Protocol: Representative compounds were screened using the assay procedure for GSK3β kinase activity as described below.
This is a non-radioactive assay using fluorescence resonance energy transfer (FRET) between coumarin and fluorescein to detect kinase activity which is represented as ratio of coumarin emission/fluorescein emission.
The mixture is allowed to incubate with the representative compounds for one hour at room temperature. All reactions were performed in duplicate. Unphosphorylated (“0% Control”) and phosphorylated (“100% control”) forms of Ser/Thr 18 serve as control reactions.
After incubation, diluted Development Buffer is added to the reaction and allowed to further incubate for one hour at room temperature.
Dose-response curves are generated and inhibitory concentration (IC50) values are calculated using non-linear regression curve fit in the Dotmatics' Studies Software (Bishops Stortford, UK).

[4] = tested on: SW480 colon carcinoma cells; test: Cell viability assay (CellTiter-Glo) in SW480 colon carcinoma cells; assay type: cell-based, human; conditions: Homo sapiens, 96 h, four days
Protocol: Representative compounds were screened using the assay procedure to assess the effect on cell viability as described below.
SW480 colon carcinoma cells were transduced with a lentiviral vector expressing luciferase with a human Sp5 promoter consisting of a sequence of eight TCF/LEF binding sites. SW480 cells stably expressing the Sp5-Luc reporter gene and a hygromycin resistance gene were selected by treatment with 150 μg/mL of hygromycin for 7 days. These stably transduced SW480 cells were expanded in cell culture and used for all further screening activities.
For the Cell Viability Assays, the cells were plated at 2,000 cells/well in 384-well plates with a DMEM medium containing 1% fetal bovine serum, and 1% Penicillin-Streptomycin and incubated for […] at 37° C. and 5% CO2. Eight replicates of DMSO-treated cells served as controls and cells treated with compound were performed in duplicate.
After incubation, 10 μL of CellTiter-Glo (Promega) was added to each well allowed to incubate for approximately 12 minutes. This reagent “results in cell lysis and generation of a luminescent signal proportional to the amount of ATP present. The amount of ATP is directly proportional to the number of cells present in culture, in agreement with previous reports. The CellTiter-Glo® Assay generates a “glow-type” luminescent signal, produced by the luciferase reaction (Promega.com)”.

[5] = tested on: primary human fibroblasts derived from IPF patients (LL29 cells); test: Inhibition of the fibrotic process: αSMA staining in TGF-β1 treated LL29 fibroblasts; assay type: cell-based; conditions: Homo sapiens, Fibroblast, 96 h; LL29 cells, TGF-β1 20 ng/mL, 4 days, % αSMA positive cells
Protocol: Representative compounds were screened using primary human fibroblasts (derived from IPF patients) treated with TGF-β1 to determine their ability to inhibit the fibrotic process.
LL29 cells were plated at 1,500 cells/well in 70 μL/well F12 medium supplemented with 1% Fetal Bovine Serum. […] Wells treated with TGF-β1 and containing DMSO were used as positive control, and cells with only DMSO were negative control. […] Following incubation for 4 days, SYTOX green nucleic acid stain (Life Technologies [Thermo Fisher Scientific]) was added to the wells at a final concentration of 1 μM and incubated at room temperature for 30 min.

[6] = tested on: IL-6; test: IL-6 inhibition in LPS-stimulated human peripheral blood mononuclear cells (HTRF); assay type: cell-based; conditions: Homo sapiens, PBMC; huPBMCs, LPS 50 ng/mL, 22 hours, IL-6 HTRF
Protocol: Fresh Normal PB MNC (Catalog #PB001, AllCells, Alameda, Calif.) were shipped overnight at 4° C. and resuspended in Roswell Park Memorial Institute (RPMI) 1640 Medium, with GlutaMAX Supplement (Catalog #61870127, ThermoFisher Scientific, Waltham, Mass.) supplemented with 1% Penicillin-Streptomycin (Catalog #15140163. ThermoFisher Scientific, Waltham, Mass.) and 1% fetal bovine serum (FBS) (Catalog #16140089, ThermoFisher Scientific, Waltham, Mass.) assay media. Fresh normal human peripheral blood mononuclear cells (huPBMCs) were resuspended in 1% FBS-RPMI assay media with 1% Penicillin-Streptomycin 1% to a cell concentration of 1×10e6 cells/mL. […] 50 ng/mL of Lipopolysaccharides from Escherichia coli 0111:B4 (Catalog #L5293-2ML, Sigma-Aldrich, St. Louis, Mo.) was added after 2 hours and cells were incubated for another 22 hours at 37° C.-5% CO2. After 22 hour incubation, a mixture of anti-IL6 XL665 and anti-IL-6 Cryptate diluted in reconstitution buffer (Catalog #62IL6PEC, Cisbio Inc., Bedford, Mass.) was added to each well. Following incubation for 3 hours at room temperature, Homogeneous Time-Resolved Fluorescence (HTRF) was measured using the Envision (Perkin Elmer, Shelton, Conn.) at 665 nm and […]. The ratio of fluorescence at 665 nm to 620 nm was used as a readout for IL-6 quantification. All samples were processed in duplicate. Readings were normalized to DMSO treated cells and normalized activities were utilized for EC50 calculations.

Chain of GSK3β kinase (P49841 whole entry): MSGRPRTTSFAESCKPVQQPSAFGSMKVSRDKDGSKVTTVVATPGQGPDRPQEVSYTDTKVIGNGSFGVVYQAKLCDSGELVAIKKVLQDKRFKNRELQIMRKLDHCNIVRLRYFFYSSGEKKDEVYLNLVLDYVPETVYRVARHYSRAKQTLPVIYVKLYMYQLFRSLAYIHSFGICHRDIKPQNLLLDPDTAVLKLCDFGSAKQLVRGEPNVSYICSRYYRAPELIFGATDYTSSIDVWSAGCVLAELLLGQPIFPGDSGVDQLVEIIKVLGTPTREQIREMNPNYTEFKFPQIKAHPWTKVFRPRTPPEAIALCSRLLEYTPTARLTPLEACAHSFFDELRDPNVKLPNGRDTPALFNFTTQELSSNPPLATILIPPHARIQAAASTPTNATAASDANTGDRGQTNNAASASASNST

For `C[C@@H](NC(=O)c1n[nH]c2ccc(-c3cnn(C)c3)cc12)C(F)(F)F` [Compound 3, (R)-5-(1-Methyl-1H-pyrazol-4-yl)-N-(1,1,1-trifluoropropan-2-yl)-1H-indazole-3-carboxamide], which EC50 [1] is on record?
Its EC50 is over 10000 nM.

What about the IC50 [2] of the same compound?
The IC50 was 134 nM.

And the IC50 [3]?
Its IC50 is 106 nM.

What about the EC50 [4] of the same compound?
Its EC50 is 8950 nM.

And the EC50 [5]?
The EC50 was 2580 nM.

And the EC50 [6]?
Its EC50 is 9070 nM.

`C[C@H](NC(=O)c1n[nH]c2ccc(-c3cnn(C)c3)cc12)C(F)(F)F` [Compound 4, (S)-5-(1-Methyl-1H-pyrazol-4-yl)-N-(1,1,1-trifluoropropan-2-yl)-1H-indazole-3-carboxamide] was tested. Which EC50 [1] did it give?
Its EC50 is 3840 nM.

And the IC50 [2]?
The IC50 was 26 nM.

What about the IC50 [3] of the same compound?
Its IC50 is 24 nM.

What about the EC50 [4] of the same compound?
Its EC50 is 2550 nM.

And the EC50 [5]?
The EC50 was 171 nM.

And the EC50 [6]?
The EC50 was 2890 nM.

Which results are given for `CN1CCC(n2cc(-c3cc4c(C(=O)Nc5ccc(OC(F)F)cc5)n[nH]c4cc3F)cn2)CC1` [Compound 59, N-(4-(Difluoromethoxy)phenyl)-6-fluoro-5-(1-(1-methylpiperidin-4-yl)-1H-pyrazol-4-yl)-1H-indazole-3-carboxamide]?
EC50 [1]: 555 nM; IC50 [2]: 28 nM; IC50 [3]: 1290 nM; EC50 [4]: 327 nM; EC50 [5]: 2540 nM; EC50 [6]: 2590 nM

Which EC50 [1] does the source give for `O=C(Nc1ccc(CN2CCCC2)cc1)c1n[nH]c2ccc(-c3cnn(C4CC4)c3)cc12` [Compound 72, 5-(1-Cyclopropyl-1H-pyrazol-4-yl)-N-(4-(pyrrolidin-1-ylmethyl)phenyl)-1H-indazole-3-carboxamide] here?
Its EC50 is 545 nM.

And the IC50 [2]?
The IC50 was 6 nM.

What about the IC50 [3] of the same compound?
Its IC50 is 40 nM.

What about the EC50 [4] of the same compound?
Its EC50 is 228 nM.

And the EC50 [5]?
Its EC50 is 242 nM.

And the EC50 [6]?
Its EC50 is 1200 nM.

How did the EC50 [1] turn out when `Cn1cc(-c2ccc3[nH]nc(C(=O)N[C@@H]4CCCC[C@H]4F)c3c2)cn1` [Compound 9, N-((1R,2R)-2-Fluorocyclohexyl)-5-(1-methyl-1H-pyrazol-4-yl)-1H-indazole-3-carboxamide] was run?
Its EC50 is 1980 nM.

And the IC50 [2]?
The IC50 was 18 nM.

And the IC50 [3]?
Its IC50 is 6 nM.

What about the EC50 [4] of the same compound?
Its EC50 is 1330 nM.

What about the EC50 [5] of the same compound?
The EC50 was 324 nM.

What about the EC50 [6] of the same compound?
The EC50 was 1090 nM.

What does the source list for `CCn1cc(-c2ccc3[nH]nc(C(=O)Nc4ccc(CN5CCCC5)cc4)c3c2)cn1` [Compound 70, 5-(1-Ethyl-1H-pyrazol-4-yl)-N-(4-(pyrrolidin-1-ylmethyl)phenyl)-1H-indazole-3-carboxamide]?
EC50 [1]: 512 nM; IC50 [2]: 5 nM; IC50 [3]: 25 nM; EC50 [4]: 518 nM; EC50 [5]: 126 nM; EC50 [6]: 1380 nM

For `CN1Cc2ccc(NC(=O)c3n[nH]c4cc(F)c(-c5cnn(C)c5)cc34)cc2C1` [Compound 85, 6-Fluoro-5-(1-methyl-1H-pyrazol-4-yl)-N-(2-methylisoindolin-5-yl)-1H-indazole-3-carboxamide], which EC50 [1] is on record?
Its EC50 is 566 nM.

What about the IC50 [2] of the same compound?
The IC50 was 2 nM.

And the IC50 [3]?
Its IC50 is 35 nM.

What about the EC50 [4] of the same compound?
The EC50 was 203 nM.

What about the EC50 [5] of the same compound?
Its EC50 is 904 nM.

And the EC50 [6]?
The EC50 was 2990 nM.

Which EC50 [1] does the source give for `O=C(N[C@@H]1CCCC[C@H]1F)c1n[nH]c2ccc(-c3cnn(C4CC4)c3)cc12` [Compound 12, 5-(1-Cyclopropyl-1H-pyrazol-4-yl)-N-((1R,2R)-2-fluorocyclohexyl)-1H-indazole-3-carboxamide] here?
Its EC50 is 5470 nM.

And the IC50 [2]?
The IC50 was 171 nM.

And the IC50 [3]?
Its IC50 is 38 nM.

What about the EC50 [4] of the same compound?
Its EC50 is 2260 nM.

And the EC50 [5]?
The EC50 was 621 nM.

What about the EC50 [6] of the same compound?
The EC50 was 1160 nM.

Which EC50 [1] does the source give for `Cc1ncc(NC(=O)c2n[nH]c3ccc(-c4cnn(C5CCNCC5)c4)cc23)s1` [Compound 97, N-(2-Methylthiazol-5-yl)-5-(1-(piperidin-4-yl)-1H-pyrazol-4-yl)-1H-indazole-3-carboxamide] here?
Its EC50 is 269 nM.

And the IC50 [2]?
The IC50 was 2 nM.

And the IC50 [3]?
Its IC50 is 98 nM.

And the EC50 [4]?
Its EC50 is 354 nM.

What about the EC50 [5] of the same compound?
Its EC50 is 291 nM.

And the EC50 [6]?
Its EC50 is 2280 nM.

For `Cc1ncc(-c2ccc3[nH]nc(C(=O)N[C@@H]4CCCC[C@H]4F)c3c2)n1C` [Compound 13, 5-(1,2-Dimethyl-1H-imidazol-5-yl)-N-((1R,2R)-2-fluorocyclohexyl)-1H-indazole-3-carboxamide], which EC50 [1] is on record?
Its EC50 is over 10000 nM.

What about the IC50 [2] of the same compound?
Its IC50 is 46 nM.

What about the IC50 [3] of the same compound?
The IC50 was 24 nM.

And the EC50 [4]?
Its EC50 is over 10000 nM.

What about the EC50 [5] of the same compound?
Its EC50 is 1390 nM.

And the EC50 [6]?
Its EC50 is over 10000 nM.
